From article PMC8319603, “Developing C2-Aroyl Indoles as Novel Inhibitors of IDO1 and Understanding Their Mechanism of Inhibition via Mass Spectroscopy, QM/MM Calculations and Molecular Dynamics Simulation” (Frontiers in Chemistry, 2021)

Legend:
[1] = Stability in human plasma; assay type: in vitro ADME
Text: For the DMPK studies of the compound 8a-d we used rat as well as human plasmas. Rat plasma was purchased from Hylasco Biotechnology Pvt. Ltd.™ Hyderabad, India. We have not performed any in vivo experiments for this manuscript neither for animals nor for humans. […] Also please note the blood plasma was obtained from the blood of Dr Srinivas R Maddi, who donated it and is the co-author of this article. The DMPK studies were supplemented by kinetic solubility, Log p and Log D determinations, PAMPA permeability, Metabolic and Plasma stability in rat and human, and finally the plasma folding in rat and human. A thorough discussion of each step is mentioned in the supplementary information. […]
Stability in rat and human plasma: Plasma stability is defined as the percentage of parent compound lost over time. The frozen plasma was thawed at room temperature and centrifuged at 1400 rpm 4 ℃, for 15 minutes. Approximately 90% of the clear supernatant fraction was transferred to a separate tube and was used for assay. The incubation mixtures consisted of human and rat palsma and compound (1 μM) or positive control (propanthelin, 1 μM) and incubated for 120 min at 37℃ in shaker with 500 rpm. All reactions were terminated using 200 μL of ice-cold acetonitrile containing internal standard (150 ng/mL of telmisartan) at 0, 15, 30, 60 and 120 min and centrifuged at 4000 rpm (Eppendorf, Germany) for 20min. The supernatants thus obtained were analyzed on LC-MS/MS to monitor the disappearance of compound. […]

[2] = biological target: T1, indolamine-2, 3-dioxygenase one (IDO1) (Homo sapiens, UniProt P14902); experiment: Inhibition kinetics (Lineweaver-Burk plots); assay type: biochemical; settings: L-tryptophan 1–4 mM, inhibitor 0–1.5 µM; with respect to L-tryptophan
T1 construct: purchased Biovision P1096
Procedure: The IDO1 activity assay was performed to measure the formation of […] by absorbance plate reader at 492 nm. The mode of inhibition of the screened compounds was determined from the Lineweaver-Burk plots, which are the double reciprocal plots of enzyme reaction velocities (1/V) vs. substrate concentrations (1/[S]), where V and [S] represent the initial rate of enzymatic reaction and L-tryptophan concentration respectively.

T1 sequence (P14902 whole entry): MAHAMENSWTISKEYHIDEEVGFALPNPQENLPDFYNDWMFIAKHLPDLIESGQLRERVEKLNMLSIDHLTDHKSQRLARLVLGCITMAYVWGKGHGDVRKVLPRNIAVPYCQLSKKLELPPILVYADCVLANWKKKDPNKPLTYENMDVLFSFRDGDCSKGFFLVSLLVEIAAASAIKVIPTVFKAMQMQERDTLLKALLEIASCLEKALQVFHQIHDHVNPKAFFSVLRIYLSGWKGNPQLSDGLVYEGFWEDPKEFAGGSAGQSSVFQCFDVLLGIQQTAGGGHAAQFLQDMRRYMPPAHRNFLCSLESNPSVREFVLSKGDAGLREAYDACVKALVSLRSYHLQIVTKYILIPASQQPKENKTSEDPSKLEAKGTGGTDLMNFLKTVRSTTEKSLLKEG

| Human plasma stability %Ge remaining after 120 min [1] | Mode of inhibition of IDO1 [2] | Compound |
| --- | --- | --- |
| 85.0% | competitive | CC(=O)NCCc1c(C(=O)c2ccc([N+](=O)[O-])cc2)[nH]c2ccccc12 [8d] |
| 108.3% |  | COC(=O)NCCc1c(C(=O)c2ccccc2)[nH]c2ccccc12 [8e] |
| 84.5% |  | CC(=O)NCCc1c(C(=O)c2cc(C(F)(F)F)cc(C(F)(F)F)c2)[nH]c2ccccc12 [8a] |
